# Measured values as given in the supplement of paper PMC11451515.
# Columns and labels:
# Conditions in all cases: 48 h
# [1] = system: NOMO1; experiment: cell viability relative to DMSO control; higher = less cytotoxic
# In short: (§1)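 NOMO1 or SEM (500 cells/well) or P12-Ichikawa (1000 cells/well) leukemia cells were adapted for at least four passages in each medium. They were seeded in 1536-well plates (5 μl) and pin-dosed with library compounds in DMSO over an 11-point threefold series, 47 μM to 0.79 nM. CellTiter-Glo One luminescence was read after 48 h at 37°C. Viability is the per-plate percentage relative to DMSO wells, with cell-free wells as background.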
# [2] = system: P12-Ichikawa; experiment: as above
# In short: as §1
# [3] = system: SEM cells; experiment: as above
# In short: as §1
# [4] = system: NOMO1; experiment: AUC of viability dose-response curve (% viability x log10 dose units); higher = less sensitive
# In short: (§2)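 Leukemia cells adapted to each medium (500 or 1000 cells/well, 1536-well plates) were exposed to library compounds in DMSO for 48 h at 37°C at 11 threefold doses, 47 μM to 0.79 nM. Luminescence by CellTiter-Glo One was normalised per plate to DMSO and cell-free wells, then fitted with a four-parameter log-logistic curve on log10 dose. Curves above full viability were scaled and quality-control failures removed before area under the curve was integrated by trapezoidal rule.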
# [5] = system: P12-Ichikawa; experiment: as above
# In short: as §2
# [6] = system: SEM cells; experiment: as above
# In short: as §2
# [7] = HPLM + 10% dialyzed FBS, 0.000781 µM
# [8] = HPLM + 10% dialyzed FBS, 0.00234 µM
# [9] = HPLM + 10% dialyzed FBS, 0.00702 µM
# [10] = HPLM + 10% dialyzed FBS, 0.0211 µM
# [11] = HPLM + 10% dialyzed FBS, 0.0632 µM
# [12] = HPLM + 10% dialyzed FBS, 0.19 µM
# [13] = HPLM + 10% dialyzed FBS, 0.569 µM
# [14] = HPLM + 10% dialyzed FBS, 1.71 µM
# [15] = HPLM + 10% dialyzed FBS, 5.12 µM
# [16] = HPLM + 10% dialyzed FBS, 15.4 µM
# [17] = HPLM + 10% dialyzed FBS, 46.1 µM
# [18] = RPMI 5 mM glucose + 10% FBS, 0.000781 µM
# [19] = RPMI 5 mM glucose + 10% FBS, 0.00234 µM
# [20] = RPMI 5 mM glucose + 10% FBS, 0.00702 µM
# [21] = RPMI 5 mM glucose + 10% FBS, 0.0211 µM
# [22] = RPMI 5 mM glucose + 10% FBS, 0.0632 µM
# [23] = RPMI 5 mM glucose + 10% FBS, 0.19 µM
# [24] = RPMI 5 mM glucose + 10% FBS, 0.569 µM
# [25] = RPMI 5 mM glucose + 10% FBS, 1.71 µM
# [26] = RPMI 5 mM glucose + 10% FBS, 5.12 µM
# [27] = RPMI 5 mM glucose + 10% FBS, 15.4 µM
# [28] = RPMI 5 mM glucose + 10% FBS, 46.1 µM
# [29] = RPMI 5 mM glucose + 10% dialyzed FBS, 0.000781 µM
# [30] = RPMI 5 mM glucose + 10% dialyzed FBS, 0.00234 µM
# [31] = RPMI 5 mM glucose + 10% dialyzed FBS, 0.00702 µM
# [32] = RPMI 5 mM glucose + 10% dialyzed FBS, 0.0211 µM
# [33] = RPMI 5 mM glucose + 10% dialyzed FBS, 0.0632 µM
# [34] = RPMI 5 mM glucose + 10% dialyzed FBS, 0.19 µM
# [35] = RPMI 5 mM glucose + 10% dialyzed FBS, 0.569 µM
# [36] = RPMI 5 mM glucose + 10% dialyzed FBS, 1.71 µM
# [37] = RPMI 5 mM glucose + 10% dialyzed FBS, 5.12 µM
# [38] = RPMI 5 mM glucose + 10% dialyzed FBS, 15.4 µM
# [39] = RPMI 5 mM glucose + 10% dialyzed FBS, 46.1 µM
# [40] = RPMI 5 mM glucose + 10% dialyzed FBS
smiles,measurement,setting,value
CCCC(C)(COC(N)=O)COC(=O)NC(C)C (configuration not stated),cell viability,[1]; [7],107%
same,cell viability,[1]; [8],123%
same,cell viability,[1]; [9],125%
same,cell viability,[1]; [10],138%
same,cell viability,[1]; [11],143%
same,cell viability,[1]; [12],131%
same,cell viability,[1]; [13],127%
same,cell viability,[1]; [14],130%
same,cell viability,[1]; [15],123%
same,cell viability,[1]; [16],141%
same,cell viability,[1]; [17],140%
same,cell viability,[1]; [18],116%
same,cell viability,[1]; [19],122%
same,cell viability,[1]; [20],132%
same,cell viability,[1]; [21],127%
same,cell viability,[1]; [22],145%
same,cell viability,[1]; [23],130%
same,cell viability,[1]; [24],127%
same,cell viability,[1]; [25],125%
same,cell viability,[1]; [26],137%
same,cell viability,[1]; [27],150%
same,cell viability,[1]; [28],129%
same,cell viability,[2]; [7],115%
same,cell viability,[2]; [8],117%
same,cell viability,[2]; [9],114%
same,cell viability,[2]; [10],130%
same,cell viability,[2]; [11],127%
same,cell viability,[2]; [12],123%
same,cell viability,[2]; [13],121%
same,cell viability,[2]; [14],119%
same,cell viability,[2]; [15],129%
same,cell viability,[2]; [16],135%
same,cell viability,[2]; [17],119%
same,cell viability,[3]; [7],87.5%
same,cell viability,[3]; [8],95.9%
same,cell viability,[3]; [9],117%
same,cell viability,[3]; [10],111%
same,cell viability,[3]; [11],139%
same,cell viability,[3]; [12],120%
same,cell viability,[3]; [13],120%
same,cell viability,[3]; [14],131%
same,cell viability,[3]; [15],126%
same,cell viability,[3]; [16],123%
same,cell viability,[3]; [17],130%
same,cell viability,[3]; [18],97.3%
same,cell viability,[3]; [19],113%
same,cell viability,[3]; [20],140%
same,cell viability,[3]; [21],138%
same,cell viability,[3]; [22],127%
same,cell viability,[3]; [23],148%
same,cell viability,[3]; [24],147%
same,cell viability,[3]; [25],163%
same,cell viability,[3]; [26],134%
same,cell viability,[3]; [27],149%
same,cell viability,[3]; [28],160%
same,cell viability,[3]; [29],88%
same,cell viability,[3]; [30],121%
same,cell viability,[3]; [31],144%
same,cell viability,[3]; [32],150%
same,cell viability,[3]; [33],138%
same,cell viability,[3]; [34],128%
same,cell viability,[3]; [35],156%
same,cell viability,[3]; [36],143%
same,cell viability,[3]; [37],139%
same,cell viability,[3]; [38],164%
same,cell viability,[3]; [39],153%
same,AUC of viability dose-response curve,[4]; HPLM + 10% dialyzed FBS,466
same,AUC of viability dose-response curve,[4]; RPMI 5 mM glucose + 10% FBS,451
same,AUC of viability dose-response curve,[4]; [40],446
same,AUC of viability dose-response curve,[5]; HPLM + 10% dialyzed FBS,459
same,AUC of viability dose-response curve,[5]; RPMI 5 mM glucose + 10% FBS,455
same,AUC of viability dose-response curve,[5]; [40],458
same,AUC of viability dose-response curve,[6]; HPLM + 10% dialyzed FBS,451
same,AUC of viability dose-response curve,[6]; RPMI 5 mM glucose + 10% FBS,443
same,AUC of viability dose-response curve,[6]; [40],412
CCOC(=O)[C@@]1(CCCCCCOc2ccc(Cl)cc2)CO1,cell viability,[1]; [18],120%
same,cell viability,[1]; [19],118%
same,cell viability,[1]; [20],109%
same,cell viability,[1]; [21],107%
same,cell viability,[1]; [22],108%
same,cell viability,[1]; [23],115%
same,cell viability,[1]; [24],106%
same,cell viability,[1]; [25],106%
same,cell viability,[1]; [26],96.5%
same,cell viability,[1]; [27],86.7%
same,cell viability,[1]; [28],48.1%
same,cell viability,[1]; [29],117%
same,cell viability,[1]; [30],117%
same,cell viability,[1]; [31],114%
same,cell viability,[1]; [32],112%
same,cell viability,[1]; [33],111%
same,cell viability,[1]; [34],111%
same,cell viability,[1]; [35],113%
same,cell viability,[1]; [36],108%
same,cell viability,[1]; [37],107%
same,cell viability,[1]; [38],96%
same,cell viability,[1]; [39],56.8%
same,cell viability,[2]; [7],113%
same,cell viability,[2]; [8],108%
same,cell viability,[2]; [9],117%
same,cell viability,[2]; [10],114%
same,cell viability,[2]; [11],112%
same,cell viability,[2]; [12],113%
same,cell viability,[2]; [13],111%
same,cell viability,[2]; [14],105%
same,cell viability,[2]; [15],105%
same,cell viability,[2]; [16],95.2%
same,cell viability,[2]; [17],7.68%
same,cell viability,[2]; [18],108%
same,cell viability,[2]; [19],115%
same,cell viability,[2]; [20],114%
same,cell viability,[2]; [21],117%
same,cell viability,[2]; [22],118%
same,cell viability,[2]; [23],111%
same,cell viability,[2]; [24],107%
same,cell viability,[2]; [25],110%
same,cell viability,[2]; [26],115%
same,cell viability,[2]; [27],104%
same,cell viability,[2]; [28],12.1%
same,cell viability,[2]; [29],121%
same,cell viability,[2]; [30],123%
same,cell viability,[2]; [31],125%
same,cell viability,[2]; [32],122%
same,cell viability,[2]; [33],114%
same,cell viability,[2]; [34],111%
same,cell viability,[2]; [35],116%
same,cell viability,[2]; [36],107%
same,cell viability,[2]; [37],113%
same,cell viability,[2]; [38],107%
same,cell viability,[2]; [39],20.8%
same,cell viability,[3]; [7],95.4%
same,cell viability,[3]; [8],103%
same,cell viability,[3]; [9],111%
same,cell viability,[3]; [10],112%
same,cell viability,[3]; [11],113%
same,cell viability,[3]; [12],95.9%
same,cell viability,[3]; [13],115%
same,cell viability,[3]; [14],94.3%
same,cell viability,[3]; [15],95.2%
same,cell viability,[3]; [16],51.3%
same,cell viability,[3]; [17],23.9%
same,cell viability,[3]; [18],114%
same,cell viability,[3]; [19],119%
same,cell viability,[3]; [20],126%
same,cell viability,[3]; [21],120%
same,cell viability,[3]; [22],125%
same,cell viability,[3]; [23],116%
same,cell viability,[3]; [24],115%
same,cell viability,[3]; [25],98.5%
same,cell viability,[3]; [26],102%
same,cell viability,[3]; [27],32.3%
same,cell viability,[3]; [28],12.6%
same,cell viability,[3]; [29],102%
same,cell viability,[3]; [30],107%
same,cell viability,[3]; [31],107%
same,cell viability,[3]; [32],106%
same,cell viability,[3]; [33],103%
same,cell viability,[3]; [34],107%
same,cell viability,[3]; [35],114%
same,cell viability,[3]; [36],102%
same,cell viability,[3]; [37],95%
same,cell viability,[3]; [38],50.4%
same,cell viability,[3]; [39],17%
same,AUC of viability dose-response curve,[4]; HPLM + 10% dialyzed FBS,458
same,AUC of viability dose-response curve,[4]; RPMI 5 mM glucose + 10% FBS,444
same,AUC of viability dose-response curve,[4]; [40],456
same,AUC of viability dose-response curve,[5]; HPLM + 10% dialyzed FBS,448
same,AUC of viability dose-response curve,[5]; RPMI 5 mM glucose + 10% FBS,452
same,AUC of viability dose-response curve,[5]; [40],454
same,AUC of viability dose-response curve,[6]; HPLM + 10% dialyzed FBS,428
same,AUC of viability dose-response curve,[6]; RPMI 5 mM glucose + 10% FBS,413
same,AUC of viability dose-response curve,[6]; [40],426
